Experiment [1] addresses T1, CypD (Homo sapiens (Human), UniProt P30405). The experiment in a line: SPR binding. The conditions noted are these: steady state KD, read-out: SPR CypD (KDss). (In SPR one partner is held on a chip, and binding of the other changes the refractive index at the surface.)
Text: Binding was confirmed on an SPR surface using a protocol adapted from Mori et al., J. Biomolecular Screening, 2009, p.
The target of experiment [2] is T1, CypD. Description: CypD binding assay (competition fluorescence polarisation with fluorescine labelled cyclosporin). As to the method:
The binding capacity of the compounds was measured using a competition Fluorescence-Polarisation based assay with fluorescine labelled cyclosporin. The protocol used was adapted from Hausch et al, Med Chem lett 2010, p 536.
(Polarisation of emitted light reports the rotation of a fluorescent probe.)

pIC50, pKd: −log10 of the molar value.

As a reminder, the pIC50 is −log10 of the IC50, conventionally taken in molar units. Higher therefore signals a small IC50.

T1 sequence (P30405 30-207): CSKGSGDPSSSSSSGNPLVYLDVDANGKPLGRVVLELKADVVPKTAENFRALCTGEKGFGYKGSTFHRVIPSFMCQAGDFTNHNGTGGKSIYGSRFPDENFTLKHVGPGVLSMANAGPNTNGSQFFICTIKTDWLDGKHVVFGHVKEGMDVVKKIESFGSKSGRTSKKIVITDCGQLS

Turning to `Nc1ccc(CCNC(=O)CN2C(=O)C3CCCCC3C2=O)cc1` (stereo not drawn) [Compound 7, N-[2-(4-Amino-phenyl)-ethyl]-2-(1,3-dioxo-octahydro-isoindol-2-yl)-acetamide], on CypD [1], the pKd was 3.70 to 5.00. In addition, the pIC50 at CypD [2] was 3.70 to 5.00.

`CCC1Oc2cc(C(C)NC(=O)CN3C(=O)[C@@H]4[C@@H]5CC[C@@H](C5)[C@@H]4C3=O)ccc2NC1=O` (stereo partly drawn) [Compound 11, 2-endo-(3,5-Dioxo-4-aza-tricyclo[5.2.1.02,6]dec-4-yl)-N-[1-(2-ethyl-3-oxo-3,4-dihydro-2H-benzo[1,4]oxazin-7-yl)-ethyl]-acetamide]: on CypD [1], the pKd was 3.70 to 5.00. The molecule also gave a pIC50 at CypD [2] of 3.70 to 5.00.

Regarding `O=C(CN1C(=O)[C@@H]2[C@@H]3CC[C@@H](C3)[C@@H]2C1=O)NCc1ccc2c(c1)[C@H]1C[C@@H](N2)[C@H](O)CO1` [Compound 3], the pKd at CypD [1] was above 5.00. Also, the pIC50 at CypD [2] was above 5.00.

On to `Nc1ccc(C2(NC(=O)CN3C(=O)[C@@H]4[C@@H]5CC[C@@H](C5)[C@@H]4C3=O)CC2)cc1` [Compound 5, 2-endo-(3,5-Dioxo-4-aza-tricyclo[5.2.1.02,6]dec-4-yl)-N-[1-(4-amino-phenyl)-cyclopropyl]-acetamide], for which the pKd on CypD [1] is 3.70 to 5.00. The molecule also showed a pIC50 on CypD [2] of 3.70 to 5.00.

Consider `Nc1ccc(CNC(=O)CN2C(=O)C3C4CCC(O4)C3C2=O)cc1` (stereo not drawn) [Compound 8, N-(4-Amino-benzyl)-2-(3,5-dioxo-10-oxa-4-aza-tricyclo[5.2.1.02,6]dec-4-yl)-acetamide], for which, at CypD [1], the pKd is 3.70 to 5.00. The molecule further gave a pIC50 at CypD [2] of 3.70 to 5.00.

With `O=C(CN1C(=O)[C@@H]2[C@@H]3CC[C@@H](C3)[C@@H]2C1=O)NCCc1ccc2c(c1)CCCN2` [Compound 9, 2-endo-(3,5-Dioxo-4-aza-tricyclo[5.2.1.02,6]dec-4-yl)-N-[2-(1,2,3,4-tetrahydro-quinolin-6-yl)-ethyl]-acetamide], the pKd at CypD [1] was 3.70 to 5.00. The same molecule showed a pIC50 on CypD [2] of 3.70 to 5.00.

Take `Nc1ccc(CCNC(=O)CN2C(=O)[C@@H]3[C@@H]4CC[C@@H](C4)[C@@H]3C2=O)cc1` [Compound 10, N-endo-[2-(4-Amino-phenyl)-ethyl]-2-(3,5-dioxo-4-aza-tricyclo[5.2.1.02,6]dec-4-yl)-acetamide]: the pKd at CypD [1] is 3.70 to 5.00. Moreover, on CypD [2], the pIC50 was 3.70 to 5.00.

On to `O=C(CN1C(=O)[C@@H]2[C@H]3CC[C@H](C3)[C@@H]2C1=O)NCc1ccc2c(c1)[C@H]1C[C@@H](N2)[C@H](O)CO1` [Compound 1, 2-exo-(3,5-Dioxo-4-aza-tricyclo[5.2.1.02,6]dec-4-yl)-N-((1R,9R,10S)-10-hydroxy-12-oxa-8-aza-tricyclo[7.3.1.02,7]trideca-2(7),3,5-trien-4-ylmethyl)-acetamide], for which the pKd on CypD [1] is above 5.00. The pIC50 at CypD [2] was above 5.00.

Regarding `CCN1Cc2cc(CNC(=O)CN3C(=O)[C@@H]4[C@H]5CC[C@H](C5)[C@@H]4C3=O)ccc2NCCC1=O` [Compound 6], at CypD [1], the pKd is 3.70 to 5.00. The molecule further had a pIC50 at CypD [2] of 3.70 to 5.00.

Source of the values: US9975902B2, “Compounds for the inhibition of cyclophilins and uses thereof” (Merck Patent GmbH, priority 2016, dated 2018).
